# Where two headings read alike, the source gives them in different places. Bridge positions count the residues as written; N and C are the ends. Square brackets hold non-standard residues; d marks the D form. Peptide text beside a SMILES is read from it. * marks the point of attachment. Ileψ(thiazoline)Cys = CC[C@H](C)[C@H](N)C1=N[C@H](C(=O)*)CS1; dOrn = NCCC[C@@H](N)C(=O)O
# Experiments:
# [1] = tested on: Cystobacter velatus MCy8071; experiment: Antibiotic resistance of the producer strain; assay type: cell-based; settings: final concentration of all antibiotics 50 μg ml^−1
# Experimental: MCy8071 is resistant against the following antibiotics: ampicillin, gentamycin, hygromycin, polymycin, bacitracin, spectinomycin, neomycin, and fusidinic acid. Weak growth is possible with cephalosporin and kasugamycin and no growth is possible with thiostrepton, trimethoprin, kanamycin, and oxytetracycline (final concentration of all antibiotics was adjusted to 50 μg ml^−1).
# [2] = tested on: E. coli strain WT III (marR Δ74 bp); experiment: Susceptibility of mutant E. coli strains, MIC; assay type: cell-based; settings: for factor of MIC increase: E. coli WT III compared to wildtype E. coli DSM-1116; for MIC, in words: E. coli WT III
# Experimental: (§1) Bacterial wildtype strains used in susceptibility assays were either part of our strain collection or purchased from the German Collection of Microorganisms and Cell Cultures (DSMZ) or from the American Type Culture Collection (ATCC). E. coli strain WT^[6] and E. coli mutants were kindly provided by Prof. Dr. P. Heisig, Pharmaceutical Biology and Microbiology, University of Hamburg.
# (§2) MIC values were determined in microdilution assays. Overnight cultures were diluted in the appropriate growth medium to achieve an inoculum of 10^4-10^6 cfu/mL. Yeasts were grown in Myc medium (1% phytone peptone, 1% glucose, 50 mM HEPES, pH 7.0), S. pneumonia and E. faecalis in tryptic soy broth (TSB: 1.7% peptone casein, 0.3% peptone soymeal, 0.25% glucose, 0.5% NaCl, 0.25% K2HPO4; pH 7.3); M. smegmatis in Middlebrook 7H9 medium supplemented with 10% Middlebrook ADC enrichment and 2 ml/l glycerol). All other listed bacteria were grown in Müller-Hinton broth (0.2% beef infusion solids, 1.75% casein hydrolysate, 0.15% starch, pH 7.4). Cystobactamides and reference drugs were added directly to the cultures in sterile 96-well plates as duplicates and serial dilutions were prepared. Microorganisms were grown on a microplate shaker (750 rpm, 30-37° C., 18-48 h), except S. pneumonia, which was grown at non-shaking conditions (37° C., 5% CO2, 18 h). Growth inhibition was assessed by visual inspection and the MIC was defined as the lowest concentration of compound that inhibited visible growth.
# [3] = tested on: E. coli WT; experiment: Susceptibility of mutant E. coli strains, MIC; assay type: cell-based; settings: Escherichia coli
# From the text: (§3) Cystobactamides were screened using a panel of E. coli strains with typical mutations in gyrA and parC genes (Table 11).
# High-level quinolone resistance often results from a combination of several target site mutations and altered efflux mechanisms. […] This, in turn, leads to overproduction of MarA and AcrAB and overexpression of the AcrAB efflux pump is associated with the MAR (multiple antibiotic resistance) phenotype.^[5]
# as §1, §2
# [4] = target: DNA/gyrase complex (Escherichia coli, UniProt P0AES4+P0AES6); settings: cystobactamide D 18 μM, ciprofloxacin 1 μM
# Experimental: (B) Here, standard gyrase reactions were inhibited using a constant amount of cystobactamide D and titrated with increasing amounts of ATP. If ATP and cystobactamide D would compete for binding at the ATP binding pocket on the gyrase GyrB subunit, increasing amounts of ATP would lead to the formation of supercoiled plasmid in the assay.
# To test if cystobactamides stabilize the covalent complex between DNA gyrase and the nicked DNA substrate, proteinase K linearization assay were performed (see a). […] To detect linearized plasmid bands the relaxed plasmid was digested by the single-cutting restriction enzyme Ndel.
# [5] = tested on: E. coli strain MI (single-step gyrA mutation); experiment: Susceptibility of mutant E. coli strains, MIC; assay type: cell-based; settings: strain MI, single-step gyrA mutation
# From the text: as §3, §1, §2
# [6] = tested on: E. coli strain WT-3.2 (single-step gyrA mutation); experiment: Susceptibility of mutant E. coli strains, MIC; assay type: cell-based; settings: strain WT-3.2, single-step gyrA mutation
# From the text: as §3, §1, §2
# [7] = tested on: E. coli strain WT-4 M2.1 (parC mutation); experiment: Susceptibility of mutant E. coli strains, MIC; assay type: cell-based
# From the text: as §3, §1, §2
# [8] = tested on: Enterobacter aerogenes DSM-30053; experiment: Susceptibility testing, MIC microdilution; assay type: cell-based; settings: Klebsiella aerogenes, DSM30053; Enterobacter aerogenes DSM-30053; read-out: MIC
# Experimental: as §1, §2
# [9] = tested on: Burkholderia cenocepacia DSM-16553; experiment: Susceptibility testing, MIC microdilution; assay type: cell-based; settings: DSM16553; Burkholderia cenocepacia DSM-16553; read-out: MIC
# Experimental: as §1, §2
# [10] = tested on: Escherichia coli DSM-26863 (tolC3); experiment: Susceptibility testing, MIC microdilution; assay type: cell-based
# Experimental: as §1, §2
# [11] = tested on: Pseudomonas aeruginosa ATCC27853; experiment: Susceptibility testing, MIC microdilution; assay type: cell-based; settings: read-out: MIC
# Experimental: as §1, §2
# [12] = tested on: Streptococcus pneumoniae DSM-20566; experiment: Susceptibility testing, MIC microdilution; assay type: cell-based; settings: DSM20566; Streptococcus pneumoniae DSM-20566; read-out: MIC
# Experimental: as §1, §2
# [13] = tested on: Candida albicans DSM-1665; experiment: Susceptibility testing, MIC microdilution; assay type: cell-based; settings: DSM1665; Candida albicans DSM-1665; read-out: MIC
# Experimental: as §1, §2
# [14] = tested on: Micrococcus luteus DSM-1790; experiment: Susceptibility testing, MIC microdilution; assay type: cell-based; settings: DSM1790; Micrococcus luteus DSM-1790; read-out: MIC
# Experimental: as §1, §2
# [15] = tested on: Escherichia coli DSM-1116; experiment: Susceptibility testing, MIC microdilution; assay type: cell-based; settings: Escherichia coli DSM-1116
# Experimental: as §1, §2
# [16] = tested on: Pseudomonas aeruginosa PA14; experiment: Susceptibility testing, MIC microdilution; assay type: cell-based
# Experimental: as §1, §2
# [17] = tested on: Mycobacterium smegmatis mc^2155 ATCC700084; experiment: Susceptibility testing, MIC microdilution; assay type: cell-based; settings: Mycolicibacterium smegmatis, ATCC700084|MC^2155; Mycobacterium smegmatis mc^2155 ATCC700084; read-out: MIC
# Experimental: as §1, §2
# [18] = tested on: Escherichia coli DSM-12242 (NAL^R); experiment: Susceptibility testing, MIC microdilution; assay type: cell-based; settings: Escherichia coli, DSM12242
# Experimental: as §1, §2
# [19] = tested on: Staphylococcus aureus ATCC29213; experiment: Susceptibility testing, MIC microdilution; assay type: cell-based; settings: read-out: MIC
# Experimental: as §1, §2
# [20] = tested on: Klebsiella pneumoniae DSM-30104; experiment: Susceptibility testing, MIC microdilution; assay type: cell-based; settings: DSM30104; Klebsiella pneumoniae DSM-30104; read-out: MIC
# Experimental: as §1, §2
# [21] = tested on: Pichia anomala DSM-6766; experiment: Susceptibility testing, MIC microdilution; assay type: cell-based; settings: Hansenula anomala, DSM6766; Pichia anomala DSM-6766; read-out: MIC
# Experimental: as §1, §2
# [22] = tested on: Enterococcus faecalis ATCC29212; experiment: Susceptibility testing, MIC microdilution; assay type: cell-based; settings: read-out: MIC
# Experimental: as §1, §2
# [23] = tested on: Escherichia coli ATCC35218; experiment: Susceptibility testing, MIC microdilution; assay type: cell-based; settings: read-out: MIC
# Experimental: as §1, §2
# [24] = tested on: Acinetobacter baumannii DSM-30008; experiment: Susceptibility testing, MIC microdilution; assay type: cell-based; settings: DSM30008; Acinetobacter baumannii DSM-30008; read-out: MIC
# Experimental: as §1, §2
# [25] = tested on: Escherichia coli ATCC25922; experiment: Susceptibility testing, MIC microdilution; assay type: cell-based; settings: read-out: MIC
# Experimental: as §1, §2
# [26] = tested on: Bacillus subtilis DSM-10; experiment: Susceptibility testing, MIC microdilution; assay type: cell-based; settings: DSM10; Bacillus subtilis DSM-10; read-out: MIC
# Experimental: as §1, §2
# [27] = tested on: Chromobacterium violaceum DSM-30191; experiment: Susceptibility testing, MIC microdilution; assay type: cell-based; settings: DSM30191; Chromobacterium violaceum DSM-30191; read-out: MIC
# Experimental: as §1, §2
# [28] = tested on: Chinese hamster ovary CHO-K1 cells; experiment: in vitro; assay type: cell-based
# Experimental: Human HCT-116 colon carcinoma cells (CCL-247) were obtained from the American Type Culture Collection (ATCC) and Chinese hamster ovary CHO-K1 cells (ACC-110) were obtained from the German Collection of Microorganisms and Cell Cultures (DSMZ). Both cell lines were cultured under the conditions recommended by the respective depositor. Primary HUVEC (human umbilical vein endothelial cells; single donor) were purchased from PromoCell (Heidelberg, Germany) and cultured in Endothelial Cell Growth Medium (PromoCell) containing the following supplements: 2% FCS, 0.4% ECGS, 0.1 ng/ml EGF, 1 ng/ml bFGF, 90 μg/ml heparin, 1 μg/ml hydrocortisone.
# (§4) Cells were seeded at 6×10^3 cells per well of 96-well plates (Corning CellBind®) in complete medium (180 μl) and directly treated with cystobactamides dissolved in methanol in a serial dilution. Compound were tested in duplicate for 5 d, as well as the internal solvent control. After 5 d incubation, 5 mg/ml MTT in PBS (20 μL) was added per well and it was further incubated for 2 h at 37° C.[7] The medium was then discarded and cells were washed with PBS (100 μl) before adding 2-propanol/10N HCl (250:1, v/v; 100 μl) in order to dissolve formazan granules. The absorbance at 570 nm was measured using a microplate reader (EL808, Bio-Tek Instruments Inc.).
# [29] = tested on: several microorganisms and cell lines; experiment: Biological evaluation, summary statements over the MIC and cytotoxicity tests; assay type: cell-based; settings: A. baumannii and P. aeruginosa
# Experimental: as §4, §2
# [30] = Escherichia coli WTIII [marRΔ74bp]
# [31] = Escherichia coli DSM-26863 (tolC3)
# Sequence of DNA/gyrase complex (P0AES4 whole entry, one chain of several): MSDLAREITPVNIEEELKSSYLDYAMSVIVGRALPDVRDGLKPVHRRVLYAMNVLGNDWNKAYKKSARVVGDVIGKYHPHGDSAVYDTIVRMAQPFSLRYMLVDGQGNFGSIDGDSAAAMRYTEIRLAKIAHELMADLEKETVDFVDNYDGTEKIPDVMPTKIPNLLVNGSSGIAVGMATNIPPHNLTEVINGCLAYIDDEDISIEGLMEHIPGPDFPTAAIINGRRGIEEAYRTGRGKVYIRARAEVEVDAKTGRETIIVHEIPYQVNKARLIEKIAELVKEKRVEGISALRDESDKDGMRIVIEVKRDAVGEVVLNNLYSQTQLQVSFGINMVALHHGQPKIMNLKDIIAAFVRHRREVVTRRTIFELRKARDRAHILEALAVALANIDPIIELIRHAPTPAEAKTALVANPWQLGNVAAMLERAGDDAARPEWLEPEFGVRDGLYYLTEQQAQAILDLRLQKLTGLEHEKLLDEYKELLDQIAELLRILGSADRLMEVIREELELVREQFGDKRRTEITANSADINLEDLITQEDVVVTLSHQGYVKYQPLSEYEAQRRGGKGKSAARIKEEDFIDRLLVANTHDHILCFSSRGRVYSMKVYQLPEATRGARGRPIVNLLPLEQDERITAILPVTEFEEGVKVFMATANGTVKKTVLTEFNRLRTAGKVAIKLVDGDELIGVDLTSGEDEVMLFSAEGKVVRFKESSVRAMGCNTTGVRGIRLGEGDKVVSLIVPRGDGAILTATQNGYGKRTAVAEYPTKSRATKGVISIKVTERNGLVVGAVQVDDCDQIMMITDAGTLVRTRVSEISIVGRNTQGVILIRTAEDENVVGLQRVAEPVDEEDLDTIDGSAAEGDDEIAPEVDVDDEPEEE
structure (smiles),measurement,setting,value
CC1(C)S[C@@H]2[C@H](NC(=O)[C@H](N)c3ccccc3)C(=O)N2[C@H]1C(=O)O [ampicillin],growth of strain MCy8071 in presence of the antibiotic,[1],resistant
CC[C@H](C)[C@H](N)C1=N[C@H](C(=O)N[C@@H](CC(C)C)C(=O)N[C@H](CCC(=O)O)C(=O)N[C@H](C(=O)N[C@H]2CCCCNC(=O)[C@H](CC(N)=O)NC(=O)[C@@H](CC(=O)O)NC(=O)[C@H](Cc3cnc[nH]3)NC(=O)[C@@H](Cc3ccccc3)NC(=O)[C@H]([C@@H](C)CC)NC(=O)[C@@H](CCCN)NC2=O)[C@@H](C)CC)CS1 [bacitracin] ({Ileψ(thiazoline)Cys}-L[dE]IK[dOrn]I[dF]H[dD]N; lactam 4-C),growth of strain MCy8071 in presence of the antibiotic,[1],resistant
"O=C(O)c1cn(C2CC2)c2cc(N3CCNCC3)c(F)cc2c1=O [ciprofloxacin, reference compound]",factor of MIC increase,[2],~10
same,factor of reduced susceptibility,[2]; E. coli WT III cp. E. coli WT,ca. 4
same,MIC,[2]; Escherichia coli,0.05 µg/mL
same,MIC,[3],0.013 µg/mL
same,formation of linearized plasmid after proteinase K treatment,[4],formation of linearized plasmid
same,factor of MIC increase,[5],~30
same,factor of MIC increase,[6],~30
same,MIC,[7]; Escherichia coli,0.025 µg/mL
same,increase of the MIC,"[7]; strain WT-4 M2.1, parC mutation",two-fold increase
same,MIC,[8],0.2 µg/mL
same,MIC,[9],6.4 µg/mL
same,MIC,"[10]; Escherichia coli, DSM26863",≤ 0.003 µg/mL
same,MIC,[11],0.1 µg/mL
same,MIC,[12],1.6 µg/mL
same,MIC,[13],> 6.4 µg/mL
same,MIC,[14],1.6 µg/mL
same,MIC,"[15]; DSM1116, read-out: MIC",0.006 µg/mL
same,MIC,[16]; read-out: MIC,0.1 µg/mL
same,MIC,[17],0.4 µg/mL
same,MIC,[18],0.05 µg/mL
same,MIC,[19],0.1 µg/mL
same,MIC,[20],0.025 µg/mL
same,MIC,[21],> 6.4 µg/mL
same,MIC,[22],0.8 µg/mL
same,MIC,[23],0.006 µg/mL
same,MIC,[24],0.2 µg/mL
same,MIC,[25],≤ 0.003 µg/mL
same,MIC,[26],0.1 µg/mL
same,MIC,[27],0.006 µg/mL
COC(C(N)=O)C(NC(=O)c1ccc(NC(=O)c2ccc([N+](=O)[O-])cc2)cc1)C(=O)Nc1ccc(C(=O)Nc2ccc(C(=O)Nc3ccc(C(=O)O)cc3)c(O)c2OC(C)C)cc1 (centres unmarked) [cystobactamide F],GI50,[28],> 111 µM
same,"MIC, in words",[2],in the μg/ml range
same,factor of MIC increase,[2],2
same,MIC,[2]; [30],0.9 µg/mL
same,inhibition of pathogenic Gram-negative strains A. baumannii and P. aeruginosa (MIC range),[29],low μg/ml range
same,MIC,[10]; [31],0.4 µg/mL
same,MIC,[15],0.4 µg/mL
same,MIC,[16],3.4 µg/mL
COc1cc(C(=O)O)ccc1NC(=O)c1ccc(NC(=O)c2ccc(NC(=O)C(NC(=O)c3ccc(NC(=O)c4ccc([N+](=O)[O-])cc4)cc3)C(OC)C(N)=O)cc2)c(OC(C)C)c1O (centres unmarked) [cystobactamide G],GI50,[28],37 to 111 µM
same,"MIC, in words",[2],in the μg/ml range
same,MIC,[2]; [30],3.6 µg/mL
same,inhibition of pathogenic Gram-negative strains A. baumannii and P. aeruginosa (MIC range),[29],low μg/ml range
same,MIC,[10]; [31],0.9 µg/mL
same,MIC,[15],0.9 µg/mL
same,MIC,[16],7.1 µg/mL
CC(=O)O[C@H]1C[C@@]2(C)[C@@H](C[C@@H](O)[C@H]3[C@@]4(C)CC[C@@H](O)[C@@H](C)[C@@H]4CC[C@@]32C)/C1=C(\CCC=C(C)C)C(=O)O [fusidinic acid],growth of strain MCy8071 in presence of the antibiotic,[1],resistant
